The values below come from patent publication US3941882A, “Rodenticidal imidazo-pyridines” (priority 1974, dated 1976).

Structures are written as SMILES. Entries after “also recorded” stand apart in the source; their conditions may differ.

The test system of one test is rats (Rattus norvegicus). Description: Rodenticidal effect in rats fed treated diet (Table I). Type of test: in vivo, Spraque-Dawley albino strain, male. As to conditions: per rat. From the text:
A quantity of a standard animal feed of the following composition: Ingredients Percent Lbs./Ton ______________________________________ Corn, Yellow, Ground 42.275 845.5 Oats, Ground 10.0 200.0 Wheat Middlings 10.0 200.0 Soybean Oil Meal, Solvent Extracted Dehulled, 50 % 18.0 360.0 Skimmed Milk, Dried 5.0 100.0 Corn, Distillers Dried Solubles 2.5 50.0 Alfalfa Meal, Dehydrated, 17 % 2.5 50.0 Whey, Whole Dried 1.0 20.0 Fish Meal with Solubles 4.0 80.0 Animal Fat, Beef Tallow 2.0 40.0 Dicalcium Phosphate, Feed Grade 0.5 10.0 Calcium Carbonate 1.0 20.0 Salt 0.3 6.0 Trace Mineral Premix AN-03 0.2 4.0 Vitamin Premix CK-1 0.5 10.0 Vitamin E Premix 0.1 2.0 Methionine Hydroxy Analog (HYDAN) 0.125 2.5 Total 100.00 2000.0 ______________________________________
was divided into two portions. To each portion, there was added an amount of 1-methoxy-6-chloro-2-heptafluoro-n-propyl-1H-imidazo(4,5-b)pyridine, so that one portion contained 800 ppm of the compound, and the other portion contained 200 ppm of the compound.
Other modified feeds were prepared as described above but containing, in lieu of the compound identified above, 1-methoxy-6-bromo-2-heptafluoro-n-propyl-1H-imidazo(4,5-b)pyridine, 6-chloro-2-pentafluoroethyl-1H-imidazo(4,5-)pyridine, or 1-methoxy-6-chloro-2-heptafluoroisopropyl-1H-imidazo(4,5-b)pyridine, in the same or other concentrations,
EXAMPLES 2-28 Representative compounds were evaluated for rodenticidal effect in rats (Rattus norvegicus, Spraque-Dawley albino strain, male, each weighing 50-60 grams). Each compound to be evaluated was formulated as described in Example 1. Control rats were maintained on the standard animal feed described in Example 1. Control rats and rats to be treated were randomly assigned. Each group contained 5 or 6 rats. Feeding of the respective diet was ad libitum. Consumption per rat per day was checked, except on weekend days, and the rats were weighed and usually necropsied at death or termination of the experiment (generally, day 10).
In the evaluation of several of the compounds, the rats were observed closely to determine the day of death. Death occurred on the day marked by "X"; where no "X" is marked, the rat was found dead on the morning following the last indicated feeding. For the remaining compounds, no such close observation was made, and the rat was found dead on the morning following the last indicated feeding. Generally, the rats were not observed or feed consumption determined on weekend days.

For the next test, the system named is prothrombin time. Put plainly: Prothrombin time in male rats (Tables III and IV). It counts as in vivo, rats (Harlan albino strain). Particulars: group of 5 rats; for Deaths / Range of Prothrombin Time: five days. The procedure: Representative compounds were evaluated for prothrombin time in standard laboratory male rats (Harlan albino strain) of weanling age. A standard laboratory animal diet was fed to one group of 5 rats to serve as a control; other groups of 5 rats received modified diets, each diet being the standard laboratory animal diet modified by the incorporation therein of 0.08 percent of the respective compound. Feeding was continued for five days, at which time a blood sample was taken from each rat and analyzed for prothrombin time. The analytical method was that of A. J. Quick, "The Determination of Prothrombin," 190 Am. J. Med. Sci. 501 (1935): and it was performed on the "Electra 600", a machine available from the Medical Laboratory Automation, Inc. The results are reported in Table III.
Additional evaluations of the effect of representative compounds of prothrombin time were conducted. The procedures were the same as those reported in Examples 30-33 except that the concentration of the respective compound was 0.02 percent.

On to `COCOn1c(C(F)(F)F)nc2ncc(Cl)cc21` [1-(methoxymethoxy)-6-chloro-2-trifluoromethyl-1H-imidazo(4,5-b)pyridine], for which the Weight change result in the test on rats (Rattus norvegicus) (700 ppm in diet) is given as “+13 grams”.

For `C=CCOn1c(C(F)(F)C(F)F)nc2nc(Cl)c(Cl)cc21` [1-allyloxy-5,6-dichloro-2-(1,1,2,2-tetrafluoroethyl)-1H-imidazo(4,5-b)pyridine], the Weight change in the test on rats (Rattus norvegicus) (100 ppm in diet) is on record as 0 grams.

In the case of `O=C(C=Cc1ccccc1)On1c(C(F)(F)F)nc2ncc(Cl)cc21` [1-cinnamoyloxy-6-chloro-2-trifluoromethyl-1H-imidazo(4,5-b)pyridine], the Necropsy results with rats (Rattus norvegicus) (1000 ppm in diet) was “SH, IH”.

In the test with rats (Rattus norvegicus) (200 ppm in diet), `CC(C)On1c(C(F)(F)F)nc2nc(Cl)c(Cl)cc21` [1-isopropoxy-5,6-dichloro-2-trifluoromethyl-1H-imidazo(4,5-b)pyridine] came in with a Weight change of 0 grams.

In the test on rats (Rattus norvegicus) (200 ppm in diet), `COn1c(C(F)(F)F)nc2nc(Cl)c(Cl)cc21` [1-methoxy-5,6-dichloro-2-trifluoromethyl-1H-imidazo(4,5-b)pyridine] had a Weight change of -12 grams.

In turn, `COn1c(C(F)(F)F)nc2nc(Cl)ccc21` [1-methoxy-5-chloro-2-trifluoromethyl-1H-imidazo(4,5-b)pyridine] registered a Weight change in the test on rats (Rattus norvegicus) (800 ppm in diet) of -11 grams.

Take `COn1c(C(F)(F)C(F)(F)C(F)(F)F)nc2ncc(Br)cc21` [1-methoxy-6-bromo-2-heptafluoro-n-propyl-1H-imidazo(4,5-b)pyridine]: the Necropsy results in the test with rats (Rattus norvegicus) (200 ppm in diet) was “LH, IH”.

For `COn1c(C(F)(F)C(F)(F)C(F)(F)F)nc2ncc(Cl)cc21` [1-methoxy-6-chloro-2-heptafluoro-n-propyl-1H-imidazo(4,5-b)pyridine], the “Necropsy results (in words)” value with rats (Rattus norvegicus) (200 ppm in diet) and with rats (Rattus norvegicus) (800 ppm in diet) was “bloody nose” each time.

For the molecule `COn1c(C(F)(C(F)(F)F)C(F)(F)F)nc2ncc(Cl)cc21` [1-methoxy-6-chloro-2-heptafluoroisopropyl-1H-imidazo(4,5-b)pyridine], the Necropsy results with rats (Rattus norvegicus) (200 ppm in diet) was “TH, SH”; with rats (Rattus norvegicus) (300 ppm in diet) it was “AH, TH, SH; also recorded: TH, Test.H”.

Consider `COn1c(C(F)(F)C(F)(F)F)nc2ncc(Cl)cc21` [1-methoxy-6-chloro-2-pentafluoroethyl-1H-imidazo(4,5-b)pyridine], for which, in the test on prothrombin time (0.02 percent in diet), the Deaths result is reported as “none” and the “Range of Prothrombin Time” value was 53.1 to 90.5 s. In addition, in the test on prothrombin time (0.08 percent in diet), the Deaths was found to be 3, the “Range of Prothrombin Time” value lay in the range of 180 to 200 s and the “Day(s) of deaths” value was in the range of 170000 to 350000 s.

As for `CNC(=O)On1c(C(F)(F)F)nc2ncc(Cl)cc21` [1-methylcarbamoyloxy-6-chloro-2-trifluoromethyl-1H-imidazo(4,5-b)pyridine], the Deaths entry in the test with prothrombin time (0.02 percent in diet) and in the test on prothrombin time (0.08 percent in diet) was “none” each time. In addition, the entries for the “Range of Prothrombin Time” value in the test on prothrombin time (0.02 percent in diet) and in the test with prothrombin time (0.08 percent in diet) were 17.6 to 22.1 s and 39.6 to 98.6 s, respectively.

Take `CC(C)(C)C(=O)On1c(C(F)(F)F)nc2ncc(Cl)cc21` [1-pivaloyloxy-6-chloro-2-trifluoromethyl-1H-imidazo(4,5-b)pyridine]: the Necropsy results is reported as “TH, IH; also recorded: NH, IH” in the test with rats (Rattus norvegicus) (750 ppm in diet) and “NH, IH” in the test on rats (Rattus norvegicus) (1500 ppm in diet).

As for `FC(F)(F)c1nc2nc(Cl)c(Cl)cc2[nH]1` [5,6-dichloro-2-trifluoromethyl-1H-imidazo(4,5-b)pyridine], the Weight change entry in the test on rats (Rattus norvegicus) (50 ppm in diet) was “+13 grams”.

As for `FC(F)C(F)(F)c1nc2ncc(Cl)cc2[nH]1` [6-chloro-2-(1,1,2,2-tetrafluoroethyl)-1H-imidazo(4,5-b)pyridine], in the test on rats (Rattus norvegicus) (150 ppm in diet), the Necropsy results is given as “TH, SIH; also recorded: NH, IH”.

In the case of `FC(F)(F)c1nc2ncc(Cl)cc2[nH]1` [6-chloro-2-trifluoromethyl-1H-imidazo(4,5-b)pyridine], the Deaths result in the test with prothrombin time (0.02 percent in diet) was “none”. In addition, in the test with prothrombin time (0.08 percent in diet), the Deaths was found to be 5 and the “Day(s) of deaths” value is listed as “three”.
